Data taken from patent publication US20100130737A1, “Regulating Agent of GPR34 Receptor Function” (TAKEDA PHARMACEUTICAL COMPANY LIMITED, priority 2005, published 2010).
Where a name gives a salt, the structure may show the parent alone.

Row | Compound | melting point [°C]
1 | O=C(Cc1ccc(OCc2ccoc2)cc1)NC1(C(=O)O)Cc2ccc(-c3ccc(Cl)cc3)cc2C1 (stereo not shown) [Example B146, 5-(4-Chlorophenyl)-2-({[4-(3-furylmethoxy)phenyl]acetyl}amino)indan-2-carboxylic acid] | 200 to 202
2 | CS(=O)(=O)Nc1cccc(COc2ccc(CC(=O)NC3(C(=O)O)Cc4ccc(-c5ccc(Cl)cc5)cc4C3)cc2)c1 (stereo not shown) [Example B193, 5-(4-Chlorophenyl)-2-({[4-({3-[(methylsulfonyl)amino]benzyl)oxy)phenyl]acetyl}amino)indan-2-carboxylic acid] | 169 to 170
3 | O=C(Cc1ccc(NCc2ccc(F)cc2)cc1)NC1(C(=O)O)Cc2ccc(-c3ccc(Cl)cc3)cc2C1 (stereo not shown) [Example B162, 5-(4-Chlorophenyl)-2-[({4-[(4-fluorobenzyl)amino]phenyl}acetyl)amino]indan-2-carboxylic acid] | 188 to 190
4 | CC(C)(C)OC(=O)N[C@@H](Cc1ccccc1)C(=O)NC1(C(=O)O)Cc2ccc(-c3ccc(Cl)cc3)cc2C1 (stereo partly shown) [Example B120, 2-{[N-(tert-Butoxycarbonyl)phenylalanyl]amino}-5-(4-chlorophenyl)indan-2-carboxylic acid] | 140 to 142
5 | O=C(N[C@@H](Cc1ccc(OCc2ccoc2)cc1)C(=O)O)c1cn2nc(-c3ccc(Cl)cc3)ccc2n1 [Example E32, N-{[6-(4-Chlorophenyl)imidazo[1,2-b]pyridazin-2-yl]carbonyl}-O-(3-furylmethyl)tyrosine] | 220
6 | O=C(NC(Cc1ccc(OCc2ccccc2)cc1)c1nnn[nH]1)c1cn2nc(-c3ccc(Cl)cc3)ccc2n1 (stereo not shown) [Example E15, N-[2-[4-(Benzyloxy)phenyl]-1-(1H-tetrazol-5-yl)ethyl]-6-(4-chlorophenyl)imidazo[1,2-b]pyridazine-2-carboxamide] | 186
7 | Cc1ccc(COc2ccc(CC(NC(=O)c3cc4ccc(-c5ccc(Cl)cc5)cc4o3)C(=O)O)cc2)cc1 (stereo not shown) [Example C158] | 204
8 | O=C(N[C@@H](Cc1ccc(OCC2CC2)cc1)C(=O)O)c1cn2cc(-c3ccc(Cl)cc3)ccc2n1 [Example E17, N-{[6-(4-Chlorophenyl)imidazo[1,2-a]pyridin-2-yl]carbonyl}-O-(cyclopropylmethyl)tyrosine] | 276
9 | O=C(Cc1ccc(OCc2ccc(F)cc2)cc1)NC1(C(=O)O)Cc2ccc(-c3ccccc3Cl)cc2C1 (stereo not shown) [Example B184, 5-(2-Chlorophenyl)-2-[({4-[(4-fluorobenzyl)oxy]phenyl}acetyl}amino}indan-2-carboxylic acid] | 213 to 215
10 | O=C(Cc1ccc(OCc2ccc(C(F)(F)F)cc2)cc1)NC1(C(=O)O)Cc2ccc(-c3ccc(Cl)cc3)cc2C1 (stereo not shown) [Example B145, 5-(4-Chlorophenyl)-2-{[(4-{[4-(trifluoromethyl)benzyl]oxy}phenyl)acetyl]amino)indan-2-carboxylic acid] | 237 to 238
11 | O=C(Cc1ccc(OC2CCc3ccccc32)cc1)NC1(C(=O)O)Cc2ccc(-c3ccc(Cl)cc3)cc2C1 (stereo not shown) [Example B154, 5-(4-Chlorophenyl)-2-({[4-(2,3-dihydro-1H-inden-1-yloxy)phenyl]acetyl)amino)indan-2-carboxylic acid] | 194 to 195
12 | O=C(Cc1ccc(Oc2nc3ccccc3s2)cc1)NC1(C(=O)O)Cc2ccc(-c3ccc(Cl)cc3)cc2C1 (stereo not shown) [Example B158, 2-({[4-(1,3-Benzothiazol-2-yloxy)phenyl]acetyl}amino)-5-(4-chlorophenyl)indan-2-carboxylic acid] | 241 to 243
13 | O=C(Cc1ccccc1Cl)NC1(C(=O)O)Cc2ccc(-c3ccc(Cl)cc3)cc2C1 (stereo not shown) [Example B136, 5-(4-Chlorophenyl)-2-{[(2-chlorophenyl)acetyl]amino}indan-2-carboxylic acid] | 222
14 | O=C(NC(Cc1ccc(OCc2ccc(F)cc2)cc1)C(=O)O)c1nc2ccc(-c3ccc(Cl)cc3)cc2[nH]1 (stereo not shown) [Example C168] | 258 to 259
15 | O=C(Cc1c[nH]c2ccccc12)NC1(C(=O)O)Cc2ccc(-c3ccc(Cl)cc3)cc2C1 (stereo not shown) [Example B176] | 209 to 211
16 | O=C(Cc1cccc(Cl)c1)NC1(C(=O)O)Cc2ccc(-c3ccc(Cl)cc3)cc2C1 (stereo not shown) [Example B138, 5-(4-Chlorophenyl)-2-{[(3-chlorophenyl)acetyl]amino}indan-2-carboxylic acid] | 234
17 | O=C(Cc1ccc(OCc2ccc(F)cc2)cc1)NC1(C(=O)O)Cc2ccc(-c3ccc(Cl)s3)cc2C1 (stereo not shown) [Example B186, 5-(5-Chloro-2-thienyl)-2-[({4-[(4-fluorobenzyl)oxy]phenyl}acetyl)amino]indan-2-carboxylic acid] | 214 to 216
18 | O=C(Cc1ccc(OCc2ccccc2C(=O)O)cc1)NC1(C(=O)O)Cc2ccc(-c3ccc(Cl)cc3)cc2C1 (stereo not shown) [Example B190, 2-[({4-[(2-Carboxybenzyl)oxy]phenyl}acetyl)amino]-5-(4-chlorophenyl)indan-2-carboxylic acid] | 209 to 211
19 | O=C(Cc1cccnc1)NC1(C(=O)O)Cc2ccc(-c3ccc(Cl)cc3)cc2C1 (stereo not shown) (as salt: hydrochloride) [Example B175, 5-(4-Chlorophenyl)-2-[(pyridin-3-ylacetyl)amino]indan-2-carboxylic acid hydrochloride] | 288
